Literature values as cited in patent US20230134563A1, “SUBLINGUAL CANNABINOID COMPOSITIONS” (ALVIT LCS PHARMA LTD., priority 2017, published 2023).

Settings: single component (oil or surfactant)

**Q.** For `CCCCCc1cc(O)c2c(c1)OC(C)(C)[C@@H]1CCC(C)=C[C@@H]21` [THC, tetrahydrocannabinol], which HLB is on record?
**A.** Its HLB is 0.754.
